According to publication PMC5784245, “An Optimized Synthetic-Bioinformatic Natural Product Antibiotic Sterilizes Multidrug-Resistant Acinetobacter baumannii-Infected Wounds” (mSphere, 2018):
In brackets after ≈: the same amount, converted by molar mass. Non-standard residues stand in square brackets, D forms with d. Residues, ends and D or L forms follow the SMILES beside them. dOrn = NCCC[C@@H](N)C(=O)O; Orn = NCCC[C@H](N)C(=O)O

Experiments:
[1] = test system: MDR A. baumannii strain AB5075; test: microbe, parasite or virus in culture; type: cell-based, Acinetobacter baumannii; conditions: MDR strain AB5075, 24 h
Experimental: (§1) Standard susceptibility assays were performed in LB medium in 96-well microtiter plates to determine the MIC by the broth microdilution method in accordance with protocols recommended by Clinical and Laboratory Standards Institute ([35]). Cytotoxicity was assessed using human HT-29 cells based on a similar broth microdilution method ([36]). All assays were performed in duplicate. For the cytotoxicity assay, 5,000 HT-29 cells per well were seeded into a microtiter plate and cultured for 24 h at 37°C in a 5% CO2 atmosphere. Peptides were supplemented at concentrations ranging from 128 to 0.5 μg/ml, and the cells were incubated for another 20 h. Growth media were removed, 3-(4,5-dimethylthiazol-2-yl)-2,5-diphenyltetrazolium bromide (MTT) was added to all wells (220 μl per well at 0.5 mg/ml), the mixture was incubated for 4 h, and then the media were discarded. Cell viability was determined by visual inspection.

Bacillus subtilis = type: cell-based; conditions: 24 h
Experimental: (§2) Wang resins were purchased from Matrix Innovation. Reagents for peptide synthesis were purchased from P3 BioSystems, Chempep, and Chem-Impex International. The fluorescent dyes DiBAC4 and SYTOX were purchased from Thermo Fisher Scientific, and media were prepared from premixed powders: brain heart infusion for S. sobrinus and L. rhamnosus (Hardy Diagnostics), yeast extract-peptone-dextrose for C. albicans, lysogeny broth (LB) for all other bacteria (BD Biosciences), and McCoy’s 5A medium with 10% fetal bovine serum for HT-29 cells (American Type Culture Collection). All other chemicals and consumables were purchased from Sigma-Aldrich and VWR International. Paenimucillin 4F for in vivo studies was purchased from Ontores Biotechnologies as a high-performance liquid chromatography (HPLC)-purified peptide and used as is. Dye assays were performed in a Gen5 microtiter plate reader (Biotek Instruments). Liquid chromatography-mass spectrometry (LC-MS) analyses were performed by using an Acquity system (Waters Corporation).
as §1

Pseudomonas aeruginosa = type: cell-based; conditions: 24 h
Experimental: as §2, §1

Enterococcus faecalis = type: cell-based; conditions: 24 h
Experimental: as §2, §1

Staphylococcus aureus = type: cell-based; conditions: 24 h
Experimental: as §2, §1

Klebsiella pneumoniae = type: cell-based; conditions: 24 h
Experimental: as §2, §1

Streptococcus sobrinus = type: cell-based; conditions: 24 h
Experimental: as §2, §1

Lactobacillus rhamnosus = type: cell-based; conditions: 24 h
Experimental: as §2, §1

Enterococcus faecium = type: cell-based; conditions: 24 h
Experimental: as §2, §1

Acinetobacter baumannii = type: cell-based; conditions: 24 h
Experimental: as §2, §1

Enterobacter cloacae = type: cell-based; conditions: 24 h
Experimental: as §2, §1

A. baumannii [2] = test: Membrane depolarization assay (DiBAC4); type: cell-based, Acinetobacter baumannii; conditions: 4× MIC (8 μg/ml); DiBAC4 fluorescence at endpoint of assay; polymyxin at 4× MIC
Experimental: In a membrane depolarization assay ([31]), A. baumannii colonies were scraped off an agar plate and suspended in LB to optical density at 600 nm (OD600) of 0.5 to 0.6. The resulting suspension (1.8 ml) was mixed 9:1 with DiBAC4 (20 μg/ml), incubated at room temperature for 5 min, and monitored at 2-s intervals (excitation/emission, 492/515 nm) for 2 min. Various solutions were added (10 μl) while the fluorescence signal was continually being monitored. Paenimucillin C was tested at final concentrations of 2× and 4× its MIC, and polymyxin B and DMSO were used as positive and negative controls, respectively. The treated cultures were then monitored at 2-s intervals for another 5 min. Pore formation assays ([32]) were performed in the same way, except that Triton X-100 was used as the positive control at a final concentration of 0.25% (wt/vol).

C. albicans = test: Toxicity assessment, MIC against C. albicans; type: cell-based, Candida albicans; conditions: Brady lab strain; yeast extract-peptone-dextrose; surrogate for cytotoxicity; duplicate
Experimental: as §2, with “Liquid chromatography-mass spectrometry (LC-MS) analyses were performed by using an Acquity system (Waters Corporation).” left out
Standard susceptibility assays were performed in LB medium in 96-well microtiter plates to determine the MIC by the broth microdilution method in accordance with protocols recommended by Clinical and Laboratory Standards Institute ([35]). Cytotoxicity was assessed using human HT-29 cells based on a similar broth microdilution method ([36]). […] Cell viability was determined by visual inspection.

[3] = test system: MDR A. baumannii strain AB5075; test: Rat cutaneous wound model, efficacy; type: in vivo, Sprague-Dawley rats; conditions: rat wound infected with AB5075 (500 CFU), topical 10 mg/ml twice daily
Experimental: (§3) The rat cutaneous wound model was used as described previously ([21]). Protocols for animal studies were approved by the Rutgers University Institutional Animal Care and Use Committee. All animals were humanely euthanized at the study endpoint by following the AVMA Guidelines for the Euthanasia of Animals. Immunocompetent Sprague-Dawley female rats (~200 g) were anesthetized by intraperitoneal injection of 100 mg/kg ketamine plus 10 mg/kg xylazine. Using a 1.0-cm-diameter disposable biopsy punch, two symmetrical wounds were created on the dorsum of each rat. A circular gauze dressing 8 mm in diameter was saturated overnight with either vehicle or 4F at 10 mg/ml in sterile centrifuge tubes. To assess tolerability, the rats were weighed daily and observed for wound healing, behavior changes, and visible adverse drug effects for 5 days. To assess efficacy, A. baumannii strain AB5075 was grown overnight and the culture was diluted to provide the challenge inoculum (500 CFU) as 50 μl of bacterial suspension in 0.9% (wt/vol) NaCl. A circular gauze dressing 8 mm in diameter was saturated overnight with vehicle, tetracycline, or 4F at 10 mg/ml in sterile centrifuge tubes. These saturated dressings were topically applied to the wound site with sterile forceps twice daily, starting at 30 min postinoculation, for 6 days. Rats were observed twice daily for morbidity and possible signs of acute toxicity. Two and four independent cutaneous wounds were tested in tolerability and efficacy assessments, respectively.

A. baumannii [4] = test: Pore formation assay (SYTOX); type: cell-based, Acinetobacter baumannii; conditions: 4× MIC (8 μg/ml), SYTOX fluorescence
[5] = test system: A. baumannii clinical isolate S3; type: cell-based, Acinetobacter baumannii; conditions: clinical isolate S3, 24 h
Experimental: as §2, §1

[6] = test system: A. baumannii clinical isolate 1788; type: cell-based, Acinetobacter baumannii; conditions: clinical isolate 1788, 24 h
Experimental: as §2, §1

[7] = test system: A. baumannii clinical isolate S5; type: cell-based, Acinetobacter baumannii; conditions: clinical isolate S5, 24 h
Experimental: as §2, §1

[8] = test system: A. baumannii clinical isolate 1790; type: cell-based, Acinetobacter baumannii; conditions: clinical isolate 1790, 24 h
Experimental: as §2, §1

[9] = test system: A. baumannii clinical isolate 1797; type: cell-based, Acinetobacter baumannii; conditions: clinical isolate 1797, 24 h
Experimental: as §2, §1

[10] = test system: A. baumannii clinical isolate 1791; type: cell-based, Acinetobacter baumannii; conditions: clinical isolate 1791, 24 h
Experimental: as §2, §1

[11] = test system: A. baumannii clinical isolate 1795; type: cell-based, Acinetobacter baumannii; conditions: clinical isolate 1795, 24 h
Experimental: as §2, §1

[12] = Rat cutaneous wound model, tolerability; type: in vivo, Sprague-Dawley rats; conditions: uninfected wounded rats, topical 10 mg/ml
Experimental: as §3, with “Rats were observed twice daily for morbidity and possible signs of acute toxicity. Two and four independent cutaneous wounds were tested in tolerability and efficacy assessments, respectively.” left out

CC[C@@H](C)[C@@H](NC(=O)[C@@H](NC(=O)[C@H](CO)NC(=O)[C@H](Cc1ccccc1)NC(=O)[C@@H](CCCN)NC(=O)[C@H](CO)NC(=O)[C@H](CO)NC(=O)[C@@H](Cc1ccccc1)NC(=O)[C@@H](CO)NC(=O)[C@H](NC(=O)[C@@H](CCCN)NC(=O)[C@@H](Cc1ccccc1)NC(C)=O)[C@H](C)CC)C(C)C)C(=O)N[C@@H](CCCN)C(=O)O [4F, paenimucillin C] (Ac-[dF][dOrn][dI][dS][dF]SS[dOrn]FSV[dI][Orn]-OH)
in vitro MIC, A. baumannii AB5075 [1]: 1 µg/mL | MIC Bacillus subtilis (Bacillus subtilis): 16 µg/mL (≈ 10.5 µM) | MIC Pseudomonas aeruginosa (Pseudomonas aeruginosa): 128 µg/mL (≈ 84.3 µM) | MIC Enterococcus faecalis (Enterococcus faecalis): 64 µg/mL (≈ 42.2 µM) | MIC Staphylococcus aureus (Staphylococcus aureus): 32 µg/mL (≈ 21.1 µM) | MIC Klebsiella pneumoniae (Klebsiella pneumoniae): 4 µg/mL (≈ 2.64 µM) | MIC Streptococcus sobrinus (Streptococcus sobrinus): 16 µg/mL (≈ 10.5 µM) | MIC Lactobacillus rhamnosus (Lactobacillus rhamnosus): 16 µg/mL (≈ 10.5 µM) | MIC Enterococcus faecium (Enterococcus faecium): 32 µg/mL (≈ 21.1 µM) | MIC Acinetobacter baumannii (Acinetobacter baumannii): 2 µg/mL (≈ 1.32 µM) | MIC Enterobacter cloacae (Enterobacter cloacae): 32 µg/mL (≈ 21.1 µM) | membrane depolarization relative to polymyxin (A. baumannii [2]): ~ 25% | MIC, toxicity assessment, C. albicans (C. albicans): 128 µg/mL (≈ 84.3 µM) | wound sterilization after 1 day [3]: completely sterilized the wounds | bacterial burden throughout the 5-day study ([3]; P < 0.00001): 0 CFU | pore formation relative to Triton X-100 (A. baumannii [4]): ~ 75% | MIC for A. baumannii clinical isolate S3 [5]: 4 µg/mL | MIC for A. baumannii clinical isolate 1788 [6]: 4 µg/mL | MIC for A. baumannii clinical isolate S5 [7]: 4 µg/mL | MIC for A. baumannii clinical isolate 1790 [8]: 4 µg/mL | MIC for A. baumannii clinical isolate 1797 [9]: 4 µg/mL | MIC for A. baumannii clinical isolate 1791 [10]: 2 µg/mL | MIC for A. baumannii clinical isolate 1795 [11]: 4 µg/mL | weight loss ([12]; 5 days, within normal range due to analgesia, two wounds): ≤ 5% | acute toxicity and change in behavior ([12]; observed 5 days): Neither acute toxicity nor any change in behavior was seen
